# According to PMC11317636, “Convergent evolution in toxin detection and resistance provides evidence for conserved bacterial–fungal interactions” (Proceedings of the National Academy of Sciences of the …, 2024):
# Columns and labels:
# GliT = target: T1, GliT (Aspergillus fumigatus, UniProt E9RAH5); format: biochemical; details: 40 µM TCEP-reduced substrate, 0.2 µM enzyme, 20 mM Tris-HCl pH 7.0, 100 mM NaCl, room temperature, 15 min
# T1 construct: one replicate with C-terminal mCherry fusion purified from A. fumigatus (A1160 background)
# DnoP (PA4170) = target: T2, DnoP (PA4170) (Pseudomonas aeruginosa, UniProt A0A0H2ZG54); test: DTNB assay of residual free thiols at […] nm; format: biochemical; details: 40 µM TCEP-reduced substrate, 0.2 µM enzyme, 20 mM Tris-HCl pH 7.0, 100 mM NaCl, room temperature, 15 min
# T2 construct: gene PA14_09950; one replicate with C-terminal mCherry fusion purified from A. fumigatus
# T2 sequence (A0A0H2ZG54 entry or part of it): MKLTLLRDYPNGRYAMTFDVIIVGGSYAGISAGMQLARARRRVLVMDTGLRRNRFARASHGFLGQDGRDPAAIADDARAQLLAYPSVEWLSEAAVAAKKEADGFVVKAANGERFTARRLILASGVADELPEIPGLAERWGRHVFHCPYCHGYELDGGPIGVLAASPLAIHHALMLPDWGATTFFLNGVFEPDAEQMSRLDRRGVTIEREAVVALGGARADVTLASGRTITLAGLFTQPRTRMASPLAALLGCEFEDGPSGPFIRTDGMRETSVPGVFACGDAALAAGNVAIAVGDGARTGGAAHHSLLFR
# T1 sequence (E9RAH5 whole entry, the tested form may be a part): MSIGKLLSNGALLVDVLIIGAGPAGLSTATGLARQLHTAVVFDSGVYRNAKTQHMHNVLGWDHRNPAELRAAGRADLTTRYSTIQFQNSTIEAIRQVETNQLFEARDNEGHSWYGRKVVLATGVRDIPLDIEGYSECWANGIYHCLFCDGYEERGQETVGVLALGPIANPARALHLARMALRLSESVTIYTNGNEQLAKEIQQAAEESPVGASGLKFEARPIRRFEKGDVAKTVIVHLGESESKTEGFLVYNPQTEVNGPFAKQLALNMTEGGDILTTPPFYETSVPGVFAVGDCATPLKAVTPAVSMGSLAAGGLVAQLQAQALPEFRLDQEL
smiles,measurement,setting,value
"CN1C(=O)C2(S)CC3=CC=CC(O)C3N2C(=O)C1(S)CO (centres unmarked) [compound 1, reduced gliotoxin]",DTNB assay of residual free thiols at 412 nm,GliT,Recombinant PA4170 and GliT catalyzed disulfide oxidation of both gliotoxin and holomycin
same,DTNB assay of residual free thiols at 412 nm,DnoP (PA4170),Recombinant PA4170 and GliT catalyzed disulfide oxidation of both gliotoxin and holomycin
